Source: PMC3020970, “K70Q Adds High-Level Tenofovir Resistance to “Q151M Complex” HIV Reverse Transcriptase through the Enhanced Discrimination Mechanism” (PLoS ONE, 2011)
Read-outs that look alike come from different tables or passages of the source.

Columns and labels:
[1] = system: HIV-1 Q151Mc; conditions: cited from earlier work; for Increase in resistance: Q151Mc
[2] = system: HIV-1 clinical isolate 1 (Q151Mc-containing); assay: Single-cycle drug susceptibility assay (MAGIC-5 cells), clinical isolate 1; assay type: cell-based; conditions: Human immunodeficiency virus 1; clinical isolate 1, MAGIC-5 cells
Procedure: (§1) HIV was isolated from fresh plasma immediately after collection of clinical samples from study participants at the outpatient clinic of the AIDS Clinical Center (ACC), International Medical Center of Japan. The Institutional Review Board approved this study (IMCJ-H13-80) and a written consent was obtained from all participants.
(§2) Susceptibilities to various RT inhibitors were determined using the MAGIC-5 cells which are HeLa cells stably transfected with a β-galactosidase gene under the control of an HIV long terminal repeat promoter, and with vectors that express the CD4 receptor and the CCR5 co-receptor under the control of the CMV promoter as described previously. Briefly, MAGIC-5 cells were infected with diluted virus stock (100 blue forming units) in the presence of increasing concentrations of RT inhibitors, cultured for 48 h, fixed, and stained with X-Gal (5-bromo-4-chloro-3-indolyl-β-D-galacto-pyranoside). The stained cells were counted under a light microscope.

[3] = system: HIV-1 clinical isolate 2 (Q151Mc + K70Q); assay: Single-cycle drug susceptibility assay (MAGIC-5 cells), clinical isolate 2; assay type: cell-based; conditions: Human immunodeficiency virus 1; clinical isolate 2, MAGIC-5 cells
Procedure: as §1, §2

[4] = system: HIV-1 K70G; assay: Single-cycle drug susceptibility assay (MAGIC-5 cells); assay type: cell-based; conditions: for EC50: Human immunodeficiency virus 1, MAGIC-5, K70G; for Fold increase in EC50 compared to HIV-1 WT: K70G vs WT
Procedure: (§3) The NL4-3-based molecular clone was constructed by replacing the pol-coding region with the HIV-1 BH10 strain. […] Each molecular clone was transfected into COS-7 cells. Cells were grown for 48 h, and culture supernatants were harvested and stored at −80°C until use.
as §2

[5] = system: HIV-1 Q151Mc/K70G; assay: as above; assay type: cell-based; conditions: for EC50: Human immunodeficiency virus 1, MAGIC-5, Q151Mc/K70G
Procedure: as §3, §2

[6] = system: HIV-1 K70E; assay: as above; assay type: cell-based; conditions: for EC50: Human immunodeficiency virus 1, MAGIC-5, K70E; for Fold increase in EC50 compared to HIV-1 WT: K70E vs WT
Procedure: as §3, §2

[7] = system: HIV-1 K70Q; assay: as above; assay type: cell-based; conditions: for EC50: Human immunodeficiency virus 1, MAGIC-5, K70Q; for Fold increase in EC50 compared to HIV-1 WT: K70Q vs WT
Procedure: as §3, §2

[8] = system: HIV-1 K70T; assay: as above; assay type: cell-based; conditions: for EC50: Human immunodeficiency virus 1, MAGIC-5, K70T; for Fold increase in EC50 compared to HIV-1 WT: K70T vs WT
Procedure: as §3, §2

[9] = system: HIV-1 Q151Mc; assay: as above; assay type: cell-based; conditions: Human immunodeficiency virus 1, MAGIC-5
Procedure: as §3, §2

[10] = system: HIV-1 K70N; assay: as above; assay type: cell-based; conditions: for EC50: Human immunodeficiency virus 1, MAGIC-5, K70N; for Fold increase in EC50 compared to HIV-1 WT: K70N vs WT
Procedure: as §3, §2

[11] = system: HIV-1 K70R; assay: as above; assay type: cell-based; conditions: for EC50: Human immunodeficiency virus 1, MAGIC-5, K70R; for Fold increase in EC50 compared to HIV-1 WT: K70R vs WT
Procedure: as §3, §2

[12] = system: HIV-1 Q151Mc/K70T; assay: as above; assay type: cell-based; conditions: for EC50: Human immunodeficiency virus 1, MAGIC-5, Q151Mc/K70T; for Fold increase in EC50 compared to HIV-1 Q151Mc: Q151Mc/K70T vs Q151Mc
Procedure: as §3, §2

[13] = system: HIV-1 Q151Mc/K70N; assay: as above; assay type: cell-based; conditions: for EC50: Human immunodeficiency virus 1, MAGIC-5, Q151Mc/K70N; for Fold increase in EC50 compared to HIV-1 Q151Mc: Q151Mc/K70N vs Q151Mc
Procedure: as §3, §2

[14] = system: HIV-1 Q151Mc/K70E; assay: as above; assay type: cell-based; conditions: for EC50: Human immunodeficiency virus 1, MAGIC-5, Q151Mc/K70E; for Fold increase in EC50 compared to HIV-1 Q151Mc: Q151Mc/K70E vs Q151Mc
Procedure: as §3, §2

[15] = system: HIV-1 Q151Mc/K70R; assay: as above; assay type: cell-based; conditions: for EC50: Human immunodeficiency virus 1, MAGIC-5, Q151Mc/K70R; for Fold increase in EC50 compared to HIV-1 Q151Mc: Q151Mc/K70R vs Q151Mc
Procedure: as §3, §2

[16] = system: HIV-1 Q151Mc/K70Q; assay: as above; assay type: cell-based; conditions: for EC50: Human immunodeficiency virus 1, MAGIC-5, Q151Mc/K70Q
Procedure: as §3, §2

[17] = system: HIV-1 WT; assay: Single-cycle drug susceptibility assay (MAGIC-5 cells), recombinant WT clone; assay type: cell-based; conditions: Human immunodeficiency virus 1, Table S2
Procedure: as §3, §2

[18] = system: HIV-1 NL4-3 strain (WT); assay: microbe, parasite or virus in culture; assay type: cell-based; conditions: Human immunodeficiency virus 1, NL43; WT, MAGIC-5 cells, Table S1; read-out: EC50
Procedure: as §2

[19] = target: T1, HIV-1 RT K70Q (Human immunodeficiency virus type 1 group M subtype B, UniProt P03366, K669Q); assay: ATP-dependent rescue assay; assay type: biochemical
T1 construct: made in house; host or cells: Escherichia coli BL21
Procedure: (§4) Template/primer (T31/P18) terminated with TFV (T/PTFV) was prepared as described in Michailidis et al. 20 nM of T/PTFV was incubated at 37°C with HIV-1 RT (60 nM), either at various concentrations of ATP (0–7 mM) for 30 minutes, or for various times (0–120 minutes) with 3.5 mM ATP, in RT buffer containing 50 mM Tris-HCl, pH 7.8, and 50 mM NaCl, and 10 mM MgCl2. […] Reactions were quenched with 100% formamide containing traces of bromophenol blue and analyzed as described above. The dissociation constants (Kd) of the various enzymes for ATP used in the rescue reactions were determined by fitting the rescue data at various ATP concentrations, using non-linear regression fitting to hyperbola.

[20] = target: T2, HIV-1 RT K70Q/Q151Mc (Human immunodeficiency virus type 1 group M subtype B, UniProt P03366, A661V/F676L/F715Y/K669Q/Q750M/V674I); assay: ATP-dependent rescue assay; assay type: biochemical
T2 construct: made in house; host or cells: Escherichia coli BL21
Procedure: as §4

[21] = target: T3, HIV-1 RT WT (Human immunodeficiency virus type 1 group M subtype B, UniProt P03366); assay: ATP-dependent rescue assay; assay type: biochemical; conditions: rescue of TFV-terminated primer, 30 minutes, read-out: apparent KD-ATP
T3 construct: made in house; host or cells: Escherichia coli BL21
Procedure: as §4

[22] = target: T4, HIV-1 RT Q151Mc (Human immunodeficiency virus type 1 group M subtype B, UniProt P03366, A661V/F676L/F715Y/Q750M/V674I); assay: ATP-dependent rescue assay; assay type: biochemical
T4 construct: made in house; host or cells: Escherichia coli BL21
Procedure: as §4

[23] = system: HIV-1 RT K70Q; assay: ATP-dependent rescue assay; assay type: biochemical; conditions: WT RT vs K70Q RT, TFV-terminated primers, 3.5 mM ATP
Procedure: as §4

[24] = system: HIV-1 RT K70Q/Q151Mc; assay: ATP-dependent rescue assay; assay type: biochemical; conditions: WT RT vs K70Q/Q151Mc RT, TFV-terminated primers, 3.5 mM ATP
Procedure: as §4

[25] = system: HIV-1 RT Q151Mc; assay: ATP-dependent rescue assay; assay type: biochemical; conditions: WT RT vs Q151Mc RT, TFV-terminated primers, 3.5 mM ATP
Procedure: as §4

| Compound | EC50 [2] | EC50 [3] | EC50 [4] | Fold increase in EC50 compared to HIV-1 WT [4] | EC50 [5] | EC50 [6] | Fold increase in EC50 compared to HIV-1 WT [6] | EC50 [7] | Fold increase in EC50 compared to HIV-1 WT [7] | EC50 [8] | Fold increase in EC50 compared to HIV-1 WT [8] | EC50 [9] | EC50 [10] | Fold increase in EC50 compared to HIV-1 WT [10] | EC50 [11] | Fold increase in EC50 compared to HIV-1 WT [11] | EC50 [12] | Fold increase in EC50 compared to HIV-1 Q151Mc [12] | EC50 [13] | Fold increase in EC50 compared to HIV-1 Q151Mc [13] | also measured |
| --- | --- | --- | --- | --- | --- | --- | --- | --- | --- | --- | --- | --- | --- | --- | --- | --- | --- | --- | --- | --- | --- |
| Nc1nc(NC2CC2)c2ncn([C@H]3C=C[C@@H](CO)C3)c2n1 [ABC, abacavir] | 16.3 ± 2.52 µM | 24.7 ± 2.89 µM | 6.6 ± 0.29 µM | (3.7) fold | 35 ± 2.7 µM | 7.3 ± 0.12 µM | (4.1) fold | 3.5 ± 0.6 µM | (1.9) fold | 2.6 ± 0.21 µM | (1.4) fold | 15 ± 2.1 µM | 3.2 ± 0.3 µM | (1.8) fold | 2.8 ± 0.31 µM | (1.6) fold | 25 ± 2.3 µM | (1.7) fold | 16 ± 2.1 µM | (1.1) fold | Resistance ([1]; Q151M plus the four associated mutations ref 17, 18, 19, 20, 21): 5 fold; Fold increase in EC50 compared to HIV-1 Q151Mc ([5]; Q151Mc/K70G vs Q151Mc): (2.5) fold; EC50 [14]: 34 ± 2.1 µM; Fold increase in EC50 compared to HIV-1 Q151Mc [14]: (2.3) fold; EC50 [15]: 14 ± 1 µM; Fold increase in EC50 compared to HIV-1 Q151Mc [15]: (0.9) fold; EC50 [16]: 24 ± 2.9 µM; Fold increase in EC50 compared to HIV-1 Q151Mc ([16]; Q151Mc/K70Q vs Q151Mc): (1.6) fold; EC50 [17]: 1.8 ± 0.22 µM; EC50 [18]: 1.6 ± 0.46 µM |
| Nc1ncnc2c1ncn2[C@@H]1O[C@H](COP(=O)(O)OP(=O)(O)OP(=O)(O)O)[C@@H](O)[C@H]1O [ATP, adenosine triphosphate] |  |  |  |  |  |  |  |  |  |  |  |  |  |  |  |  |  |  |  |  | Kd [19]: 700 µM; Kd [20]: 3100 µM; Kd [21]: 400 µM; Kd [22]: 2300 µM |
| C[C@H](Cn1cnc2c(N)ncnc21)OCP(=O)(O)O [TFV, tenofovir] |  |  |  |  |  |  |  |  |  |  |  |  |  |  |  |  |  |  |  |  | Increase in resistance ([1]; Miller et al. ref 22): 1.8 fold; Increase in resistance ([1]; Smith et al. ref 23): 3.6 fold; ATP-based rescue activity of WT RT, fold faster than mutant RT [23]: 1.5 fold; ATP-based rescue activity of WT RT, fold faster than mutant RT [24]: 3 fold; ATP-based rescue activity of WT RT, fold faster than mutant RT [25]: 2.5 fold |
| Cc1cn([C@H]2C=C[C@@H](CO)O2)c(=O)[nH]c1=O [d4T, stavudine] | 18.3 ± 1.53 µM | > 100 µM | 4.3 ± 0.26 µM | (1.7) fold | 115 ± 5.1 µM | 16 ± 2.7 µM | (6.2) fold | 3 ± 0.21 µM | (1.2) fold | 2.2 ± 0.17 µM | (0.8) fold | 25 ± 2.3 µM | 3.4 ± 0.25 µM | (1.3) fold | 4.3 ± 0.57 µM | (1.7) fold | 16 ± 2.7 µM | (0.6) fold | 25 ± 4 µM | (1) fold | EC50 [14]: 32 ± 3.6 µM; Fold increase in EC50 compared to HIV-1 Q151Mc [14]: (1.3) fold; EC50 [15]: 44 ± 4.5 µM; Fold increase in EC50 compared to HIV-1 Q151Mc [15]: (1.8) fold; EC50 [16]: 110 ± 6.6 µM; EC50 [17]: 2.6 ± 0.23 µM; EC50 [18]: 2 ± 0.55 µM |
